Data as given in PubChem BioAssay AID330 (DTP/NCI, 2004).
Where “and” joins values, the source holds several entries; their conditions need not be identical. Identical values can stand only once. Inconclusive results and toxic doses are left out.

System: P388 leukemia ip, CD2F1 mice, survival T/C
Experiment: NCI In Vivo Anticancer Drug Screen. Data for tumor model P388 Leukemia (intraperitoneal) in CD2F1 (CDF1) mice
Settings: endpoint: median survival time, higher = longer survival
How it was run: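 Mice carrying the transplanted tumor received test compound or vehicle. Survival was recorded in each group, and the value is the treated-group measurement divided by that of the vehicle-treated control group.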

[1] = dose: 50.0 mg/kg/injection, schedule: Q01DX009 (ip), vehicle: saline
[2] = dose: 60.0 mg/kg/injection, schedule: Q01DX005 (ip), vehicle: saline with Tween-80
[3] = dose: 120.0 mg/kg/injection, schedule: Q01DX005 (ip), vehicle: saline with Tween-80
[4] = dose: 50.0 mg/kg/injection, schedule: Q01DX005 (ip), vehicle: saline with Tween-80
[5] = dose: 100.0 mg/kg/injection, schedule: Q01DX005 (ip), vehicle: saline with Tween-80
[6] = dose: 200.0 mg/kg/injection, schedule: Q01DX005 (ip), vehicle: saline with Tween-80
[7] = dose: 240.0 mg/kg/injection, schedule: Q01DX005 (ip), vehicle: saline with Tween-80
[8] = dose: 50.0 mg/kg/injection, schedule: Q01DX005 (ip), vehicle: Klucel (hydroxypropylcellulose) (HPC)
[9] = dose: 100.0 mg/kg/injection, schedule: Q01DX005 (ip), vehicle: Klucel (hydroxypropylcellulose) (HPC)
[10] = dose: 200.0 mg/kg/injection, schedule: Q01DX005 (ip), vehicle: Klucel (hydroxypropylcellulose) (HPC)
[11] = dose: 50.0 mg/kg/injection, schedule: Q01DX009 (ip), vehicle: saline with Tween-80
[12] = dose: 100.0 mg/kg/injection, schedule: Q01DX009 (ip), vehicle: saline with Tween-80
[13] = dose: 200.0 mg/kg/injection, schedule: Q01DX009 (ip), vehicle: saline with Tween-80

Structure (SMILES): CCOC(=O)C1(N)CCCC1
- T/C (dose: 6.25 mg/kg/injection, schedule: Q01DX009 (ip), vehicle: saline): 105 % of control and 86 % of control
- T/C (dose: 12.5 mg/kg/injection, schedule: Q01DX009 (ip), vehicle: saline): 100 % of control and 102 % of control
- T/C (dose: 25.0 mg/kg/injection, schedule: Q01DX009 (ip), vehicle: saline): 100 % of control and 96 % of control
- T/C [1]: 114 % of control and 96 % of control

Structure (SMILES): COc1cc2c(c(OC)c1OC)-c1ccc(OC)c(=O)cc1[C@@H](NC(=O)c1ccccc1)CC2
- T/C (dose: 0.5 mg/kg/injection, schedule: Q01DX009 (ip), vehicle: Klucel (hydroxypropylcellulose) (HPC)): 156 % of control
- T/C (dose: 0.5 mg/kg/injection, schedule: Q01DX009 (ip), vehicle: saline with Tween-80): 121 % of control
- T/C (dose: 0.63 mg/kg/injection, schedule: Q01DX009 (ip), vehicle: distilled water + Tween-80): 154 % of control
- T/C (dose: 1.0 mg/kg/injection, schedule: Q01DX009 (ip), vehicle: Klucel (hydroxypropylcellulose) (HPC)): 182 % of control
- T/C (dose: 1.25 mg/kg/injection, schedule: Q01DX009 (ip), vehicle: distilled water + Tween-80): 218 % of control
- T/C (dose: 2.0 mg/kg/injection, schedule: Q01DX009 (ip), vehicle: saline with Tween-80): 165 % of control
- T/C (dose: 2.5 mg/kg/injection, schedule: Q01DX009 (ip), vehicle: distilled water + Tween-80): 261 % of control
- T/C (dose: 4.0 mg/kg/injection, schedule: Q01DX009 (ip), vehicle: saline with Tween-80): 86 % of control
- T/C (dose: 5.0 mg/kg/injection, schedule: Q04DX003 (ip), vehicle: saline sonified): 109 % of control
- T/C (dose: 5.0 mg/kg/injection, schedule: Q04DX003 (ip), vehicle: saline with Tween-80): 186 % of control
- T/C (dose: 7.5 mg/kg/injection, schedule: Q04DX003 (ip), vehicle: saline sonified): 154 % of control

Structure (SMILES): N#C[S][Hg][c]1ccccc1
- T/C [2]: 106 % of control
- T/C [3]: 98 % of control

Structure (SMILES): Nc1nc(-c2ccc(Nc3ccnc4cc(Cl)ccc34)cc2)cs1
- T/C [4]: 96 % of control
- T/C [5]: 88 % of control
- T/C [6]: 86 % of control

Structure (SMILES): NNC(=O)C1C2c3ccccc3C(c3ccccc32)C1C(=O)NN (stereo unspecified)
- T/C [2]: 99 % of control
- T/C [3]: 99 % of control
- T/C [7]: 96 % of control

Structure (SMILES): CCCCN(CCCC)CCOc1ccc(/C(CC)=C(/CC)c2ccc(OCCN(CCCC)CCCC)cc2)cc1
- T/C (dose: 12.5 mg/kg/injection, schedule: Q01DX005 (ip), vehicle: saline): 100 % of control
- T/C (dose: 25.0 mg/kg/injection, schedule: Q01DX005 (ip), vehicle: saline): 87 % of control
- T/C (dose: 50.0 mg/kg/injection, schedule: Q01DX005 (ip), vehicle: saline): 100 % of control and 102 % of control

Structure (SMILES): Cc1cccc(C)c1NC(=O)C(=O)C(C#N)c1c(Cl)cccc1Cl (stereo unspecified)
- T/C [2]: 102 % of control
- T/C [3]: 102 % of control
- T/C [7]: 104 % of control

Structure (SMILES): O=C(CN1CCNCC1)N1CCCC1
- T/C [8]: 106 % of control
- T/C [9]: 97 % of control
- T/C [10]: 98 % of control

Structure (SMILES): CN(C)c1ccc(/C=N/N=C2\C(=O)Nc3c(Cl)cc(Cl)cc32)cc1
- T/C [11]: 95 % of control
- T/C [12]: 97 % of control
- T/C [13]: 95 % of control

Structure (SMILES): O=C1c2ccc(Cl)cc2-n2c1nc1ccccc1c2=O
- T/C (dose: 100.0 mg/kg/injection, schedule: Q01DX001 (ip), vehicle: Klucel (hydroxypropylcellulose) (HPC)): 100 % of control
- T/C (dose: 200.0 mg/kg/injection, schedule: Q01DX001 (ip), vehicle: Klucel (hydroxypropylcellulose) (HPC)): 93 % of control
- T/C (dose: 400.0 mg/kg/injection, schedule: Q01DX001 (ip), vehicle: Klucel (hydroxypropylcellulose) (HPC)): 93 % of control

Structure (SMILES): O=C(OCCN(CCOC(=O)c1ccc([N+](=O)[O-])cc1)c1c[nH]c(=O)[nH]c1=O)c1ccc([N+](=O)[O-])cc1
- T/C [4]: 96 % of control
- T/C [5]: 104 % of control
- T/C [6]: 96 % of control

Structure (SMILES): O=C1c2cccc3cc([N+](=O)[O-])cc(c23)C(=O)N1CCCNCCNCCCN1C(=O)c2cccc3cc([N+](=O)[O-])cc(c23)C1=O
- T/C [4]: 92 % of control
- T/C [5]: 154 % of control

Structure (SMILES): CC1C(c2ccccc2)OCCN1C(=S)NC(=O)c1ccccc1 (stereo unspecified)
- T/C (dose: 25.0 mg/kg/injection, schedule: Q01DX009 (ip), vehicle: Klucel (hydroxypropylcellulose) (HPC)): 102 % of control
- T/C (dose: 50.0 mg/kg/injection, schedule: Q01DX009 (ip), vehicle: Klucel (hydroxypropylcellulose) (HPC)): 101 % of control
- T/C (dose: 100.0 mg/kg/injection, schedule: Q01DX009 (ip), vehicle: Klucel (hydroxypropylcellulose) (HPC)): 100 % of control
- T/C (dose: 200.0 mg/kg/injection, schedule: Q01DX009 (ip), vehicle: Klucel (hydroxypropylcellulose) (HPC)): 111 % of control

Structure (SMILES): CCCCC1(CCCCCCCCC(O)CC(=O)OCC)OCCO1 (stereo unspecified)
- T/C (dose: 100.0 mg/kg/injection, schedule: Q04DX002 (ip), vehicle: Klucel (hydroxypropylcellulose) (HPC)): 104 % of control
- T/C (dose: 200.0 mg/kg/injection, schedule: Q04DX002 (ip), vehicle: Klucel (hydroxypropylcellulose) (HPC)): 100 % of control
- T/C (dose: 400.0 mg/kg/injection, schedule: Q04DX002 (ip), vehicle: Klucel (hydroxypropylcellulose) (HPC)): 96 % of control

Structure (SMILES): NC(=O)c1csc(C2OC3COP(=O)(O)OC3C2O)n1 (stereo unspecified)
- T/C (dose: 12.5 mg/kg/injection, schedule: Q01DX005 (ip), vehicle: water): 105 % of control
- T/C (dose: 25.0 mg/kg/injection, schedule: Q01DX005 (ip), vehicle: water): 105 % of control
- T/C (dose: 50.0 mg/kg/injection, schedule: Q01DX005 (ip), vehicle: water): 114 % of control and 118 % of control
- T/C (dose: 100.0 mg/kg/injection, schedule: Q01DX005 (ip), vehicle: water): 123 % of control and 124 % of control
- T/C (dose: 200.0 mg/kg/injection, schedule: Q01DX005 (ip), vehicle: water): 152 % of control
- T/C (dose: 400.0 mg/kg/injection, schedule: Q01DX005 (ip), vehicle: water): 155 % of control

Structure (SMILES): C=CCOc1nc(OCC=C)nc(OCC=C)n1
- T/C [12]: 97 % of control
- T/C [13]: 93 % of control

Structure (SMILES): Clc1ccc2ccc3ccc(Cl)nc3c2n1
- T/C [2]: 92 % of control
- T/C [3]: 89 % of control
- T/C [7]: 92 % of control

Structure (SMILES): COc1cc2cc[n+]3c4ccc([N+](=O)[O-])cc4ccc3c2cc1OC
- T/C [6]: 89 % of control

Structure (SMILES): O=C(Nc1cc(Cl)ccc1Cl)Oc1ccc(Cl)cc1C(=O)c1ccccc1
- T/C [1]: 102 % of control
- T/C (dose: 100.0 mg/kg/injection, schedule: Q01DX009 (ip), vehicle: saline): 97 % of control
- T/C (dose: 200.0 mg/kg/injection, schedule: Q01DX009 (ip), vehicle: saline): 89 % of control

Structure (SMILES): Cc1ccc(N2C(=O)CC3(CCCC3)C2=O)cc1C
- T/C (dose: 100.0 mg/kg/injection, schedule: Q04DX003 (ip), vehicle: Klucel (hydroxypropylcellulose) (HPC)): 100 % of control
- T/C (dose: 200.0 mg/kg/injection, schedule: Q04DX003 (ip), vehicle: Klucel (hydroxypropylcellulose) (HPC)): 98 % of control
- T/C (dose: 400.0 mg/kg/injection, schedule: Q04DX003 (ip), vehicle: Klucel (hydroxypropylcellulose) (HPC)): 98 % of control

Structure (SMILES): CSCS(=O)C[C@H](CO)NC(=O)/C=C/c1c(C)[nH]c(=O)[nH]c1=O (stereo partly specified)
- T/C (dose: 0.08 mg/kg/injection, schedule: Q01DX009 (ip), vehicle: other): 97 % of control
- T/C (dose: 0.4 mg/kg/injection, schedule: Q01DX009 (ip), vehicle: water): 94 % of control
- T/C (dose: 0.5 mg/kg/injection, schedule: Q01DX009 (ip), vehicle: water): 95 % of control

Structure (SMILES): Cc1cnc2c(N)cc(C)c(C)c2c1
- T/C (dose: 12.5 mg/kg/injection, schedule: Q01DX009 (ip), vehicle: saline with Tween-80): 94 % of control
- T/C (dose: 25.0 mg/kg/injection, schedule: Q01DX009 (ip), vehicle: saline with Tween-80): 100 % of control
- T/C [11]: 99 % of control and 100 % of control
- T/C [12]: 86 % of control

Structure (SMILES): COc1ccccc1-n1c(Cc2cccc3ccccc23)n[nH]c1=S
- T/C [8]: 99 % of control
- T/C [9]: 100 % of control
- T/C [10]: 99 % of control

Structure (SMILES): Nc1nc(-c2ccc(F)cc2)cc(-c2cc(-c3ccc(F)cc3)nc(N)n2)n1
- T/C (dose: 60.0 mg/kg/injection, schedule: Q01DX005 (ip), vehicle: saline): 100 % of control
- T/C (dose: 120.0 mg/kg/injection, schedule: Q01DX005 (ip), vehicle: saline): 105 % of control
- T/C (dose: 240.0 mg/kg/injection, schedule: Q01DX005 (ip), vehicle: saline): 102 % of control
